Experimental data reported in PubChem BioAssay AID248 (DTP/NCI, 2004).
Toxic doses and inconclusive results are not listed. No stated cut-off is given here; in the data, active means T/C of 150% or more; inactive means T/C below 125%. Peptide text beside a SMILES is read from it. * marks the point of attachment. Boc = CC(C)(C)OC(=O)*

Tested on: L1210 leukemia ip in BDF1 mice, survival T/C
Assay: NCI In Vivo Anticancer Drug Screen. Data for tumor model L1210 Leukemia (intraperitoneal) in B6D2F1 (BDF1) mice
Settings: endpoint: mean survival time, higher = longer survival
In short: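 Transplantable tumor model; survival measured in treated vs vehicle control mice. Value = treated/control.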

[1] = dose: 100.0 mg/kg/injection, schedule: Q01DX009 (ip), vehicle: saline with Tween-80
[2] = dose: 100.0 mg/kg/injection, schedule: Q04DX003 (ip), vehicle: saline with Tween-80
[3] = dose: 200.0 mg/kg/injection, schedule: Q01DX009 (ip), vehicle: saline with Tween-80
[4] = dose: 400.0 mg/kg/injection, schedule: Q04DX003 (ip), vehicle: saline with Tween-80
[5] = dose: 100.0 mg/kg/injection, schedule: Q04DX003 (ip), vehicle: saline
[6] = dose: 200.0 mg/kg/injection, schedule: Q04DX003 (ip), vehicle: saline
[7] = dose: 400.0 mg/kg/injection, schedule: Q04DX003 (ip), vehicle: saline
[8] = dose: 200.0 mg/kg/injection, schedule: Q04DX003 (ip), vehicle: saline with Tween-80
[9] = dose: 100.0 mg/kg/injection, schedule: Q01DX009 (ip), vehicle: saline
[10] = dose: 100.0 mg/kg/injection, schedule: Q04DX002 (ip), vehicle: saline with Tween-80
[11] = dose: 200.0 mg/kg/injection, schedule: Q04DX002 (ip), vehicle: saline with Tween-80
[12] = dose: 400.0 mg/kg/injection, schedule: Q04DX002 (ip), vehicle: saline with Tween-80

Measured: T/C

ON(C(=Nc1ccccc1)c1ccccc1)c1ccccc1
inactive: dose: 50.0 mg/kg/injection, schedule: Q01DX001 (ip), vehicle: saline 102 % of control | dose: 100.0 mg/kg/injection, schedule: Q01DX001 (ip), vehicle: saline 101 % of control

COc1ccc(C2C3C=CC(C3)C2C(=O)O)cc1 (stereo not drawn)
inactive: [1] 97 % of control | [2] 93 % of control | [3] 93 % of control | dose: 400.0 mg/kg/injection, schedule: Q01DX009 (ip), vehicle: saline with Tween-80 95 % of control | [4] 91 % of control

CC(C)CC(NC(=O)OC(C)(C)C)C(=O)NC(Cc1c[nH]c2ccccc12)C(=O)N1CCCC1C(=O)NCC(N)=O (stereo not drawn) (Boc-LWPG-NH2; configuration not given here)
inactive: [5] 93 % of control | [6] 90 % of control | [7] 97 % of control

CC(=O)c1ccc(OCc2ccccc2)cc1OCC(O)CN1CCN(c2ccc(C)c(C)c2)CC1 (stereo not drawn)
inactive: [2] 97 % of control | [8] 95 % of control | [4] 92 % of control

Cc1cc(C)c(B(O)O)c(C)c1
inactive: [9] 100 % of control | [5] 105 % of control | dose: 200.0 mg/kg/injection, schedule: Q01DX009 (ip), vehicle: saline 96 % of control | [6] 100 % of control | dose: 400.0 mg/kg/injection, schedule: Q01DX009 (ip), vehicle: saline 103 % of control | [7] 102 % of control

Nc1ccc2nc3c(N)ccc(N)c3nc2c1
inactive: [10] 97 % of control | [11] 105 % of control | [12] 105 % of control

CCN(CCCl)Cc1ccc(-c2c3ccccc3cc3c2ccc2ccccc23)cc1
inactive: dose: 78.0 mg/kg/injection, schedule: Q01DX001 (ip), vehicle: carboxymethylcellulose (CMC) 90 % of control | dose: 118.0 mg/kg/injection, schedule: Q01DX001 (ip), vehicle: carboxymethylcellulose (CMC) 92 % of control | dose: 177.0 mg/kg/injection, schedule: Q01DX001 (ip), vehicle: carboxymethylcellulose (CMC) 95 % of control

O=[N+]([O-])C1CC(Cl)CCC1SSC1CCC(Cl)CC1[N+](=O)[O-] (stereo not drawn)
inactive: [10] 95 % of control | [11] 98 % of control | [12] 92 % of control

Nc1cc2ccc(S(=O)(=O)O)cc2cc1S(=O)(=O)O
inactive: dose: 100.0 mg/kg/injection, schedule: Q04DX003 (ip), vehicle: Klucel (hydroxypropylcellulose) (HPC) 100 % of control | dose: 200.0 mg/kg/injection, schedule: Q04DX003 (ip), vehicle: Klucel (hydroxypropylcellulose) (HPC) 97 % of control | dose: 400.0 mg/kg/injection, schedule: Q04DX003 (ip), vehicle: Klucel (hydroxypropylcellulose) (HPC) 91 % of control

Cc1cc(C(=O)Nc2ccc(NC3=NCCN3)cc2)c(C)cc1C(=O)Nc1ccc(NC2=NCCN2)cc1
inactive: dose: 1.88 mg/kg/injection, schedule: Q01DX Z (ip), vehicle: saline 93 % of control | dose: 3.75 mg/kg/injection, schedule: Q01DX Z (ip), vehicle: saline 98 % of control | dose: 7.5 mg/kg/injection, schedule: Q01DX Z (ip), vehicle: saline 94 % of control | dose: 15.0 mg/kg/injection, schedule: Q01DX Z (ip), vehicle: saline 108 % of control | dose: 30.0 mg/kg/injection, schedule: Q01DX Z (ip), vehicle: saline 103 % of control

O=C(O)c1ccc(/C=N/NC(=S)Nc2cccc3cccnc23)cc1
inactive: dose: 200.0 mg/kg/injection, schedule: Q01DX001 (ip), vehicle: saline 94 % of control | dose: 400.0 mg/kg/injection, schedule: Q01DX001 (ip), vehicle: saline 97 % of control

CCCCCCC(O)/C=C/c1ccc(Cl)cc1 (stereo not drawn)
inactive: [1] 94 % of control | [3] 91 % of control

CC1=C2CCCC3(OCCO3)C2(C)CCC1=O (stereo not drawn)
inactive: dose: 100.0 mg/kg/injection, schedule: Q04DX002 (ip), vehicle: other 98 % of control | dose: 200.0 mg/kg/injection, schedule: Q04DX002 (ip), vehicle: other 109 % of control | dose: 400.0 mg/kg/injection, schedule: Q04DX002 (ip), vehicle: other 102 % of control

O=C(O)/C=C/C(=O)Nc1ccc(F)cc1F
inactive: [2] 100 % of control | [8] 100 % of control | [4] 107 % of control

C=C1C(=O)OC2CC(C)C(C(O)CC(C)O)=CCC12 (stereo not drawn)
inactive: dose: 50.0 mg/kg/injection, schedule: Q01DX001 (ip), vehicle: water 95 % of control | dose: 100.0 mg/kg/injection, schedule: Q01DX001 (ip), vehicle: water 95 % of control

O=[N+]([O-])/C=C/c1ccccc1Cl
inactive: dose: 5.0 mg/kg/injection, schedule: Q01DX009 (ip), vehicle: other 98 % of control | dose: 6.25 mg/kg/injection, schedule: Q01DX009 (ip), vehicle: saline with Tween-80 100 % of control | dose: 10.0 mg/kg/injection, schedule: Q01DX009 (ip), vehicle: other 110 % of control | dose: 12.5 mg/kg/injection, schedule: Q01DX009 (ip), vehicle: saline with Tween-80 95 % of control | dose: 15.0 mg/kg/injection, schedule: Q04DX003 (ip), vehicle: other 114 % of control | dose: 20.0 mg/kg/injection, schedule: Q01DX009 (ip), vehicle: other 100 % of control | dose: 25.0 mg/kg/injection, schedule: Q01DX009 (ip), vehicle: saline with Tween-80 101 % of control | dose: 30.0 mg/kg/injection, schedule: Q04DX003 (ip), vehicle: other 104 % of control | dose: 37.5 mg/kg/injection, schedule: Q01DX009 (sc), vehicle: olive oil, sesame oil, peanut oil 94 % of control | dose: 37.5 mg/kg/injection, schedule: Q04DX003 (ip), vehicle: Klucel (hydroxypropylcellulose) (HPC) 101 % of control | dose: 50.0 mg/kg/injection, schedule: Q01DX009 (ip), vehicle: saline with Tween-80 96 % of control | dose: 60.0 mg/kg/injection, schedule: Q04DX003 (ip), vehicle: other 108 % of control | dose: 75.0 mg/kg/injection, schedule: Q01DX001 (ip), vehicle: saline 92 % of control | dose: 75.0 mg/kg/injection, schedule: Q01DX009 (sc), vehicle: olive oil, sesame oil, peanut oil 94 % of control | dose: 75.0 mg/kg/injection, schedule: Q04DX003 (ip), vehicle: Klucel (hydroxypropylcellulose) (HPC) 90 % of control | dose: 150.0 mg/kg/injection, schedule: Q04DX003 (ip), vehicle: Klucel (hydroxypropylcellulose) (HPC) 90 % of control

O=C(O)C(Br)CF (stereo not drawn)
inactive: dose: 100.0 mg/kg/injection, schedule: Q04DX002 (ip), vehicle: saline 93 % of control | dose: 200.0 mg/kg/injection, schedule: Q04DX002 (ip), vehicle: saline 97 % of control | dose: 400.0 mg/kg/injection, schedule: Q04DX002 (ip), vehicle: saline 87 % of control

CN(C)CSc1ccccc1
inactive: dose: 10.0 mg/kg/injection, schedule: Q01DX001 (ip), vehicle: saline 101 % of control | dose: 20.0 mg/kg/injection, schedule: Q01DX001 (ip), vehicle: saline 110 % of control | dose: 40.0 mg/kg/injection, schedule: Q01DX001 (ip), vehicle: saline 104 % of control | dose: 80.0 mg/kg/injection, schedule: Q01DX001 (ip), vehicle: saline 98 % of control

CCC(C)C(CCN1CCCC1)(CNC(=O)CN(CC)CC)c1cccc2ccccc12 (stereo not drawn)
inactive: [9] 95 % of control

O/C(=C/C(=S)S)c1ccco1
inactive: dose: 25.0 mg/kg/injection, schedule: Q01DX009 (ip), vehicle: water 87 % of control | dose: 50.0 mg/kg/injection, schedule: Q01DX009 (ip), vehicle: water 93 % of control | dose: 100.0 mg/kg/injection, schedule: Q01DX009 (ip), vehicle: water 88 % of control | dose: 200.0 mg/kg/injection, schedule: Q01DX009 (ip), vehicle: water 90 % of control | dose: 400.0 mg/kg/injection, schedule: Q01DX009 (ip), vehicle: water 93 % of control

O=c1oc2ccc(Cl)cc2c2c1OC(c1ccccc1)CN2 (stereo not drawn)
inactive: dose: 100.0 mg/kg/injection, schedule: Q01DX001 (ip), vehicle: Klucel (hydroxypropylcellulose) (HPC) 96 % of control | dose: 200.0 mg/kg/injection, schedule: Q01DX001 (ip), vehicle: Klucel (hydroxypropylcellulose) (HPC) 90 % of control | dose: 400.0 mg/kg/injection, schedule: Q01DX001 (ip), vehicle: Klucel (hydroxypropylcellulose) (HPC) 91 % of control

CCCCCCC(CCCCCC)CCCCCC
inactive: dose: 100.0 mg/kg/injection, schedule: Q01DX001 (ip), vehicle: saline with Tween-80 99 % of control | dose: 200.0 mg/kg/injection, schedule: Q01DX001 (ip), vehicle: saline with Tween-80 100 % of control | dose: 400.0 mg/kg/injection, schedule: Q01DX001 (ip), vehicle: saline with Tween-80 99 % of control
